Measurements: patent publication US8349850B2, “Heterocyclic compounds and uses thereof in the treatment of sexual disorders” (ATIR Holding S.A., priority 2006, dated 2013)

Legend:
[1] = target: T1, PDE5 partially purified from human platelets (Homo sapiens, UniProt O76074); test: Phosphodiesterase Type 5 (PDE5) Inhibition; format: biochemical; settings: for inhibition at 50 µM: 50 mcM compound, 1 μM cGMP; for PDE5 IC50, 10^−6 M / IC50: 'active' = observed activity not quantitated; for IC50: read-out: PDE5 IC50, 10^−6 M
T1 construct: PDE5 partially purified from human platelets was used; from tissue; host or cells: human platelets
Protocol: Phosphodiesterase type 5 (PDE5) catalyzes the conversion of cAMP or cGMP to their respective monophosphate forms. PDE5 has a high Km for cAMP and a low Km for cGMP, is insensitive to Ca^2+/calmodulin or cGMP regulation, and is relatively sensitive to inhibitors such as dipyridamol and zaprinast.
PDE5 partially purified from human platelets was used. The tested compound (at a concentration of 0.1, 1, 20 or 50 μM) and/or vehicle was incubated with 3.5 μg enzyme and 1 μM cGMP containing 0.01 μM [^3H]cGMP in Tris buffer pH 7.5 for 20 minutes at 30° C. Since enzyme activity may change from lot to lot, the concentration used was adjusted if required.
The reaction was terminated by boiling the reaction mixture for 2 minutes. The obtained GMP was then converted to guanosine by addition of 10 mg/ml snake venom nucleotidase and further incubation at 30° C. for 10 minutes. Unhydrolyzed cGMP was bound to AG1-X2 resin, and remaining [^3H]Guanosine in the aqueous phase was quantitated by scintillation counting.

D4.4 receptor = target: T2, D4.4 receptor (Homo sapiens, UniProt P21917); test: Competitive binding to D4.4 dopamine receptor ([3H]-YM-09151-2 radioligand); settings: 5 mcM compound; human recombinant D4.4 in CHO cells; na = no activity
T2 construct: expressed in transfected cells; host or cells: CHO cells
T2 sequence (P21917 1-419): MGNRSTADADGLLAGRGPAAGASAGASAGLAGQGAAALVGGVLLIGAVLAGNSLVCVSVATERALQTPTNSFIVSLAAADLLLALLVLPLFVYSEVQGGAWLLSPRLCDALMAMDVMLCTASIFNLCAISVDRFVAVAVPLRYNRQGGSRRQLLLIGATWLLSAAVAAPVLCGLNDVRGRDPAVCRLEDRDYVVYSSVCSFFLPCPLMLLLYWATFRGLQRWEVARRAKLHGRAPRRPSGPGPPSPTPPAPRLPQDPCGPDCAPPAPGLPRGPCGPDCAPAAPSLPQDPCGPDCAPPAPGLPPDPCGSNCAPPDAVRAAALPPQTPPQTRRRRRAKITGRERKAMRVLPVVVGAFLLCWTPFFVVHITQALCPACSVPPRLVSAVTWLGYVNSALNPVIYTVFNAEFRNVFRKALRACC
Protocol: Compounds were assayed for competitive binding to D2 SHORT and D4.4 type dopamine receptors. Both receptor types are expressed as human recombinant proteins in CHO cells, as described, for example, in Jarvis et al. (1973); Van Tol et al. (1991) and Van Tol et al. (1992).
Determination of binding to D4.4 receptor was performed using [^3H]-YM-09151-2 (70-87 Ci/mmol, 0.3 nM), as a radioligand, in with the presence of various concentrations of the tested compound. Reactions were carried out in 50 mM TRIS-HCl (pH 7.4) containing 5 mM MgCl2, 5 mM EDTA, 5 mM KCl and 1.5 mM CaCl2, for 60 minutes at 22° C. The reaction was terminated by rapid vacuum filtration onto glass fiber filters. Radioactivity trapped onto the filters was determined (counted) and compared to control values in order to accurately evaluate any interaction of the tested compound(s) with the cloned dopamine D4.4 binding site.

inhibition at 50 µM [1]	inhibition at 5 µM (D4.4 receptor)	SMILES	further results
29%	–	O=c1[nH]c(CN2CCN(c3ccccn3)CC2)nc2ccccc12 [Compound 102, 2-[(4-pyridin-2-ylpiperazin-1-yl)methyl]quinazolin-4(3H)-one]	PDE5 IC50, 10^−6 M [1]: active
61%	13%	O=c1[nH]c(CN2CCN(c3ncccn3)CC2)nc2ccccc12 [Compound 123, 2-[(4-pyrimidin-2-ylpiperazin-1-yl)methyl]quinazolin-4(3H)-one]	IC50 [1]: 26 µM
32%	33%	O=c1[nH]c(CN2CCN(c3ncccn3)CC2)nc2nc[nH]c12 [Compound 408, 2-((4-(pyrimidin-2-yl)piperazin-1-yl)methyl)-1H-purin-6(7H)-one]	PDE5 IC50, 10^−6 M [1]: active
24%	8%	O=c1[nH]c(CN2CCN(c3ccccn3)CC2)nc2nc[nH]c12 [Compound 409, 2-((4-(pyridin-2-yl)piperazin-1-yl)methyl)-1H-purin-6(7H)-one]	PDE5 IC50, 10^−6 M [1]: active
–	–	O=c1[nH]c(CN2CCN(c3cccc(O)c3)CC2)nc2cc(Cl)ccc12 [Compound B-3]	D4.4(h) Competitive Binding, % at 5 mcM (D4.4 receptor): 82%
25%	91%	COc1cc2nc(CN3CCN(c4cccc(O)c4)CC3)[nH]c(=O)c2cc1OC [Compound B-4, 2-((4-(3-hydroxyphenyl)piperazin-1-yl)methyl)-6,7-dimethoxyquinazolin-4(3H)-one]	PDE5 IC50, 10^−6 M [1]: active
28%	90%	O=c1[nH]c(CN2CCN(c3cccc(O)c3)CC2)nc2cc(Cl)ccc12 [Compound B-8, 7-chloro-2-((4-(3-hydroxyphenyl)piperazin-1-yl)methyl)quinazolin-4(3H)-one]	PDE5 IC50, 10^−6 M [1]: active
47%	89%	Cc1cccc2nc(CN3CCN(c4cccc(O)c4)CC3)[nH]c(=O)c12 [Compound B-9, 2-((4-(3-hydroxyphenyl)piperazin-1-yl)methyl)-5-methylquinazolin-4(3H)-one]	PDE5 IC50, 10^−6 M [1]: active
40%	60%	O=c1[nH]c(CN2CCN(c3ncccc3OCc3ccccc3)CC2)nc2ccccc12 [Compound B-10, 2-((4-(3-(benzyloxy)pyridin-2-yl)piperazin-1-yl)methyl)quinazolin-4(3H)-one]	PDE5 IC50, 10^−6 M [1]: active
68%	18%	O=c1[nH]c(CN2CCN(c3nccs3)CC2)nc2ccccc12 [Compound B-11, 2-((4-(thiazol-2-yl)piperazin-1-yl)methyl)quinazolin-4(3H)-one]	IC50 [1]: 2 µM
–	86%	CCOc1cccnc1N1CCN(Cc2nc3ccccc3c(=O)[nH]2)CC1 [Compound B-13, 2-((4-(3-ethoxypyridin-2-yl)piperazin-1-yl)methyl)quinazolin-4(3H)-one]	–
70%	81%	CCCOc1cccnc1N1CCN(Cc2nc3ccccc3c(=O)[nH]2)CC1 [Compound B-14, 2-((4-(3-propoxypyridin-2-yl)piperazin-1-yl)methyl)quinazolin-4(3H)-one]	IC50 [1]: 9 µM; exhibit both PDE5 inhibition and D4 agonist activity (dual activity) ([1]; referring to Table 2 (PDE5 and D4 assays)): both PDE5 inhibition and D4 agonist activity
31%	11%	CCCn1cnc2nc(CN3CCN(c4cccc(O)c4)CC3)[nH]c(=O)c21 [Compound B-33, 2-((4-(3-hydroxyphenyl)piperazin-1-yl)methyl)-7-propyl-1H-purin-6(7H)-one]	PDE5 IC50, 10^−6 M [1]: active
–	84%	N#Cc1ccccc1N1CCN(Cc2nc3ccccc3[nH]c2=O)CC1 [Compound B-34, 2-(4-((1,2-dihydro-2-oxoquinoxalin-3-yl)methyl)piperazin-1-yl)benzonitrile]	–
–	82%	O=c1[nH]c(CN2CCN(c3cccc(O)c3)CC2)nc2cccc(F)c12 [Compound B-36, 5-fluoro-2-((4-(3-hydroxyphenyl)piperazin-1-yl)methyl)quinazolin-4(3H)-one]	–
–	62%	O=c1[nH]c2ccccc2nc1CN1CCN(c2cccc(O)c2)CC1 [Compound B-37, 3-((4-(3-hydroxyphenyl)piperazin-1-yl)methyl)quinoxalin-2(1H)-one]	–
–	65%	COc1ccccc1N1CCN(Cc2nc3cc(Cl)ccc3c(=O)[nH]2)CC1 [Compound B-38, 7-chloro-2-((4-(2-methoxyphenyl)piperazin-1-yl)methyl)quinazolin-4(3H)-one]	–
26%	–	CCOc1cccnc1N1CCN(Cc2nc3cc(Cl)ccc3c(=O)[nH]2)CC1 [Compound B-43, 7-chloro-2-((4-(3-ethoxypyridin-2-yl)piperazin-1-yl)methyl)quinazolin-4(3H)-one]	PDE5 IC50, 10^−6 M [1]: active
–	29%	O=c1[nH]c2ccccc2nc1CN1CCN(c2ncccn2)CC1 [Compound B-44, 3-((4-(pyrimidin-2-yl)piperazin-1-yl)methyl)quinoxalin-2(1H)-one]	–
–	46%	CCOc1ccccc1N1CCN(Cc2nc3cc(Cl)ccc3c(=O)[nH]2)CC1 [Compound B-45, 7-chloro-2-((4-(2-ethoxyphenyl)piperazin-1-yl)methyl)quinazolin-4(3H)-one]	–
–	88%	O=c1[nH]c(CN2CCC(c3ccccc3)CC2)nc2ccccc12 [Compound B-51, 2-((4-phenylpiperidin-1-yl)methyl)quinazolin-4(3H)-one]	–
73%	–	O=c1c2ccccc2nc(CN2CCN(c3ncccn3)CC2)n1Cc1ccccc1 [Compound B-75, 3-benzyl-2-((4-(pyrimidin-2-yl)piperazin-1-yl)methyl)quinazolin-4(3H)-one]	IC50 [1]: 21 µM
–	57%	O=c1[nH]c(CN2CCCC(c3ccccn3)C2)nc2ccccc12 (centres unmarked) [Compound B-83, 2-((3-(pyridin-2-yl)piperidin-1-yl)methyl)quinazolin-4(3H)-one]	–
–	54%	CCn1c(=O)c2[nH]c(CN3CCN(c4cccc(O)c4)CC3)nc2n(CC)c1=O [Xan1, 1,3-diethyl-8-((4-(3-hydroxyphenyl)piperazin-1-yl)methyl)-1H-purine-2,6(3H,7H)-dione]	–

SMILES	inhibition at 50 µM [1]	inhibition at 5 µM (D4.4 receptor)	further results
O=c1[nH]c(CN2CC=C(c3ccccn3)CC2)nc2ccccc12 [Compound 115, 2-(3′,6′-dihydro-2,4′-bipyridin-1′(2′H)-ylmethyl)quinazolin-4(3H)-one]	–	66%	–
COc1ccccc1C1=CCN(Cc2nc3ccccc3c(=O)[nH]2)CC1 [Compound B-31, 2-((5,6-dihydro-4-(2-methoxyphenyl)pyridin-1(2H)-yl)methyl)quinazolin-4(3H)-one]	–	74%	–
COc1ccccc1C1=CCN(Cc2nc3cc(Cl)ccc3c(=O)[nH]2)CC1 [Compound B-39, 7-chloro-2-((5,6-dihydro-4-(2-methoxyphenyl)pyridin-1(2H)-yl)methyl)quinazolin-4(3H)-one]	–	95%	–
O=c1[nH]c2ccccc2nc1CN1CC=C(c2ccccc2)CC1 [Compound B-42, 3-((5,6-dihydro-4-phenylpyridin-1(2H)-yl)methyl)quinoxalin-2(1H)-one]	–	62%	–
O=c1[nH]c(CN2CC=C(c3ccccc3)CC2)nc2cc(Cl)ccc12 [Compound B-47, 7-chloro-2-((5,6-dihydro-4-phenylpyridin-1(2H)-yl)methyl)quinazolin-4(3H)-one]	–	63%	–
O=c1[nH]c(CN2CC=C(c3ccccn3)CC2)nc2cc(Cl)ccc12 [Compound B-71, 7-chloro-2-((5,6-dihydro-4-(pyridin-2-yl)pyridin-1(2H)-yl)methyl)quinazolin-4(3H)-one]	63%	–	IC50 [1]: 27 µM
CCn1c(=O)c2[nH]c(CN3CC=C(c4ccccc4)CC3)nc2n(CC)c1=O [Xan2]	–	25%	–
